From PMC8844856, “Structural basis of cyclic oligoadenylate binding to the transcription factor Csa3 outlines cross talk between type III and type I CRISPR systems” (The Journal of Biological Chemistry, 2022)

Assays:
[1] = molecular target: T1, His6-Csa3Sso (WT) (Saccharolobus solfataricus, UniProt Q97Y88); assay: Microscale thermophoresis (MST) binding of cOA ligands to wildtype Csa3Sso; details: MST
T1 construct: made in house; host or cells: E. coli BL21(DE3)-pLysS
T1 sequence (Q97Y88 1-237): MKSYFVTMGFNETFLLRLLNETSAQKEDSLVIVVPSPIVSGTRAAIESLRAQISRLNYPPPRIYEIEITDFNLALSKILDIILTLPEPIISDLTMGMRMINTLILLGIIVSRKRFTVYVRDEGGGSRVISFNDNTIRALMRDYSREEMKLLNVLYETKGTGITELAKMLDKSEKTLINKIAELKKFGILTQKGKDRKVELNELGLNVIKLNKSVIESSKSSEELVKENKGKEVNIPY
Description: The ligand-binding specificity of Csa3Sso (WT) and the role of Csa3Sso residues in ligand binding were determined by microscale Thermophoresis (MST). Wildtype or mutant His6-Csa3Sso (200 nM) was fluorescently labeled in 2× binding buffer (10 mM Na/K phosphate, pH 5.8, 10 mM MgCl2, 25 mM NaCl, and 0.05% Tween 20) using 100 nM RED-Tris NTA His-Tag labeling dye (Nanotemper Technologies, Inc) and incubated in the dark at room temperature for 30 min. Two millimolar stocks of synthetic ligands including cA3, cA4, and cA6 (Biolog Life Science Institute) or linear ribonucleotide 5′-rCrArArArA-3′ (Bio-Synthesis Inc) were serially diluted in a 1:1 ratio with nuclease-free water. The labeled proteins were then mixed with ligands in a 1:1 ratio. Only cA4 was used in the MST experiments with the Csa3Sso mutants (2 mM stocks of cA4 were used for F10A, F14A, G96A, and R98A mutants, and 20 μM stocks were used for E122A and E122Q mutants). The mixtures of proteins and ligands were incubated in the dark at room temperature for 30 min. The precipitated material was removed by centrifugation at 6000 rpm for 5 min. The supernatants were then loaded into Monolith NT.115 Series Premium capillaries in triplicate, and the thermophoresis was detected with 40% excitation power and 40% IR-laser power for an on-time of 20 s at 25 °C.
The binding affinities of oligonucleotides and PCas4a to Csa3Sso (WT and mutants) were analyzed according to the law of mass action in a standard fitting mode of MO.Affinity analysis software (version 2.3).

[2] = system: Csa3bSis binding to the Pcsa1 promoter; design: method as in PMID 32983033; details: in the presence of the cA4 analog in vitro; cited from earlier work
[3] = molecular target: Csa3bSis; design: method as in PMID 32983033; details: surface plasmon resonance; cited from earlier work

Substance: 5′-rCrArArArA-3′ [5′CAAAA3′]
- specific binding to His6-Csa3Sso [1]: only cA4 exhibited a specific low micromolar binding
- fold increase in Csa3bSis binding affinity to the Pcsa1 promoter [2]: ~10 fold
- Kd [3]: 46.1 ± 8.14 µM
